Data published in patent publication US4069337A, “2-Substituted-indole-1-lower-alkanecarboxamides having anti-secretory or anti-ulcer activity” (Sterling Drug Inc., priority 1976, dated 1978).
Where two headings read alike, the source gives them in different places.

Tests used:
[1] = tested on: secretion of gastric fluids; test: anti-secretory activity in pylorus-ligated rats (method of Shay et al.); assay type: in vivo, male albino Wistar rats
Method: In standard biological test procedures, described generally by Shay et al., Gastroenterology 5, 43 (1945) and 26, 906 (1954) and by Selmici et al., Acta Physiol. Acad. Sci. Hung. […] Anti-secretory activity was determined in male albino Wistar rats weighing approximately 180 g. using the method described by Shay et al. which is described as follows: the rats were divided into medicated groups of at least five rats each and control groups of ten rats. The rats were medicated orally once daily for 2 days prior to stomach ligation and once again immediately following ligation. All drugs were administered as the free base, and control rats received only the vehicle of medication. The rats were housed individually in wire cages, food was withdrawn 48 hours prior to surgery, and water was withdrawn at the time of surgery. Laparotomy was performed under light ether anesthesia, the pyloric-duodenal junction was ligated, and the wound was closed with metal clips and sprayed with a protective surgical dressing. Five hours following surgery, the rats were sacrificed, the stomach was removed, and the gastric juice collected. The gastric fluid was centrifuged, the total volume, color, and volume of solids were recorded. The pH of the gastric fluid was then determined on a Beckman pH meter, and the "free" and "total" hydrochloric acid content of each gastric sample was determined by titrating an aliquot of the gastric fluid (diluted to approximately 10 ml. with distilled water) by titrating with 0.1N sodium hydroxide against Toepfers reagent and phenolphthalein, respectively. By determining the milliequivalents of hydrochloric acid per milliliter of gastric juice and knowing the total volume of gastric juice secreted by each rat, the total acid output can be calculated. Since pH is a function of "free" acid, the activity of the test compounds can be evaluated by comparison of the mean "free" acid of medicated rats with the mean "free" acid of the controls, and the activity can thus be expressed in terms of percent inhibition of free acid.
(§1) Data obtained on administration of the compounds of formula I in rats in the anti-secretory and anti-ulcer tests described above are given in the table below. Unless noted otherwise, data were obtained on oral administration. Results in the anti-secretory activity tests are given in terms of the pH of the gastric fluid in the test animals and the percent inhibition of free acid, while results in the anti-ulcer test are given either in terms of the percent inhibition of ulcers or as a ratio representing the number of animals with ulcers (as the numerator) to the total number of animals in the test group (as the denominator). All doses are expressed in mg./kg.

[2] = tested on: reserpine-induced stomach ulceration; test: anti-ulcer activity, reserpine-induced ulcer test (method of Selmici et al.); assay type: in vivo, male, albino, Sprague-Dawley rats; conditions: oral; for inhibition in vivo at 100 mg/kg / Anti-Ulcer: ratio of number of animals with ulcers to total number of animals in the test group: 100 mg./kg.
Method: The anti-ulcer activity of the compounds was determined using the reserpine-induced anti-ulcer test method, described by Selmici et al., which is described briefly as follows: male, albino, Sprague-Dawley rats, weighing approximately 300 g., were divided into medicated and control groups of at least five rats each, and one positive control group of five rats medicated with a known drug at the active dose was run with each experiment. The rats were medicated forty-eight, twenty-four, and one hour before receiving an injection of reserpine. All test drugs were administered orally in terms of base, and the control rats received only the vehicle of medication. The rats were housed individually in wire cages, and food was withdrawn 24 hours prior to injection of reserpine, while water was allowed ad libitum. One hour following the third medication, 5.0 mg. of reserpine per kilogram of body weight in a concentration of 5 mg./ml. was injected intramuscularly in each rat. Eighteen hours after injection the rats were sacrificed, their stomachs removed, opened along the greater curvature, rinsed in warm saline, and pinned to a cork board for gross observation. The stomachs were examined for the number and size of ulcerations located in the glandular portion of the stomach with the aid of a one millimeter grid ocular with a 10x dissecting microscope. The degree of ulceration was arbitrarily graded according to the number and size of the ulcers as follows:
The points were added together and divided by the number of rats in each group to give an ulcer score, and the difference in the mean scores of the medicated and control group was expressed as percent inhibition of ulceration. Alternatively, the results can be expressed as a ratio of the total number of rats with any degree of ulceration (as the numerator) to the total number of rats in the test group (as the denominator).
as §1

[3] = Rattus norvegicus, po, 5 h, oral, 25 mg./kg., read-out: % Inhibition of Free Acid
[4] = Rattus norvegicus, po, 5 h, oral, 100 mg./kg., read-out: % Inhibition of Free Acid
[5] = Rattus norvegicus, 5 h, oral, 100 mg./kg., read-out: % Inhibition of Free Acid
[6] = Rattus norvegicus, sc, 5 h, s.c., 100 mg./kg., read-out: % Inhibition of Free Acid
[7] = Rattus norvegicus, intraduodenal, 5 h, i.d., 100 mg./kg., read-out: % Inhibition of Free Acid
[8] = Rattus norvegicus, ip, 5 h, i.p., 100 mg./kg., read-out: % Inhibition of Free Acid

Structure (SMILES) | inhibition in vivo at 100 mg/kg [1, 4] | pH of the gastric fluid ([1]; oral, 100 mg./kg.) | inhibition in vivo at 25 mg/kg ([2]; Rattus norvegicus, 18 h) | inhibition in vivo at 100 mg/kg ([2]; Rattus norvegicus, 18 h) | also measured
Cc1c(C)n(CC(N)=O)c2ccccc12 [Example 1A, 2,3-dimethyl-1-indoleacetamide] | 100% | 6.0 | 95% | 99% | inhibition in vivo at 25 mg/kg [1, 3]: 69%; inhibition in vivo at 50 mg/kg ([1]; Rattus norvegicus, po, 5 h, oral, 50 mg./kg., read-out: % Inhibition of Free Acid): 65%; inhibition in vivo at 200 mg/kg ([1]; Rattus norvegicus, po, 5 h, oral, 200 mg./kg., read-out: % Inhibition of Free Acid): 100%; pH of the gastric fluid ([1]; oral, 25 mg./kg.): 2.6; pH of the gastric fluid ([1]; oral, 50 mg./kg.): 3.0; pH of the gastric fluid ([1]; oral, 200 mg./kg.): 6.7; inhibition in vivo at 0.8 mg/kg ([2]; Rattus norvegicus, 18 h): 0%; inhibition in vivo at 1.56 mg/kg ([2]; Rattus norvegicus, 18 h): 38%; inhibition in vivo at 3.12 mg/kg ([2]; Rattus norvegicus, 18 h, 3.12 mg./kg.): 45%; inhibition in vivo at 6.25 mg/kg ([2]; Rattus norvegicus, 18 h): 75%; inhibition in vivo at 12.5 mg/kg ([2]; Rattus norvegicus, 18 h): 81%; inhibition in vivo at 50 mg/kg ([2]; Rattus norvegicus, 18 h): 98%
CCc1c(C)c2ccccc2n1CC(N)=O [Example 1C, 2-Ethyl-3-methyl-1-indoleacetamide] | 50% | 2.8 | 84% | 96% | 
Cc1c(C)n(CCCC(N)=O)c2ccccc12 [Example 1D, γ-(2,3-Dimethyl-1-indole)butyramide] | 100% | 6.2 | 72% | 99% | inhibition in vivo at 6.25 mg/kg ([1]; Rattus norvegicus, po, 5 h, oral, 6.25 mg./kg., read-out: % Inhibition of Free Acid): 14%; inhibition in vivo at 25 mg/kg [1, 3]: 38%; pH of the gastric fluid ([1]; oral, 6.25 mg./kg.): 1.3; pH of the gastric fluid ([1]; oral, 25 mg./kg.): 1.6; inhibition in vivo at 0.8 mg/kg ([2]; Rattus norvegicus, 18 h): 38%; inhibition in vivo at 1.56 mg/kg ([2]; Rattus norvegicus, 18 h): 38%; inhibition in vivo at 6.25 mg/kg ([2]; Rattus norvegicus, 18 h): 0%
Cc1c(C)n(CCC(=O)N(C)C)c2ccccc12 [Example 2, β-(2,3-dimethyl-1-indole)-N,N-dimethylpropionamide] | 93% | 4.4 | 34% |  | 
Cc1c(C)n(CC(=O)NO)c2ccccc12 [Example 3B, 2,3-Dimethyl-1-indoleacetohydroxamic acid] | 20% |  |  | 99% | 
CCc1c(C)n(CC(N)=O)c2ccccc12 [Example 3C, 2-Methyl-3-ethyl-1-indoleacetamide] | 86% | 2.8 |  | 97% | 
Cc1c(C)n(CCC(=O)NCCO)c2ccccc12 [Example 3D, β-(2,3-Dimethyl-1-indole)-N-(2-hydroxyethyl)propionamide] |  | 1.2 | 48% |  | 
Cc1c(C)n(CCC(=O)NCCCO)c2ccccc12 [Example 3E, β-(2,3-Dimethyl-1-indole)-N-(3-hydroxypropyl)propionamide] | 34% | 1.4 | 51% |  | 
Cc1c(C)n(CCC(=O)NO)c2ccccc12 [Example 3F, β-(2,3-Dimethyl-1-indole)propionohydroxamic acid] | 34% | 1.3 |  |  | inhibition in vivo at 50 mg/kg ([2]; Rattus norvegicus, 18 h): 95%
Cc1c(C)n(CCC(N)=O)c2ccc(Cl)cc12 [Example 4B, β-(2,3-Dimethyl-5-chloro-1-indole)propionamide] | 88% | 3.6 | 95% |  | 
Cc1c(C)n(CCC(N)=O)c2ccc(F)cc12 [Example 4C, β-(2,3-Dimethyl-5-fluoro-1-indole)propionamide] | 97% | 5.9 | 94% |  | 
CCc1c(C)c2ccccc2n1CCC(N)=O [Example 4D, β-(2-Ethyl-3-methyl-1-indole)propionamide] | 88% | 4.1 |  | 97% | 
CCc1c(C)n(CCC(N)=O)c2ccccc12 [Example 4E, β-(2-Methyl-3-ethyl-1-indole)propionamide] | 42% | 3.4 | 80% | 93% | inhibition in vivo at 6.25 mg/kg ([2]; Rattus norvegicus, 18 h): 60%; inhibition in vivo at 12.5 mg/kg ([2]; Rattus norvegicus, 18 h): 72%; inhibition in vivo at 50 mg/kg ([2]; Rattus norvegicus, 18 h): 94%
Cc1c(C=O)c2ccccc2n1CCC(N)=O [Example 4F, β-(2-Methyl-3-formyl-1-indole)propionamide] |  | 1.2 |  | 9% | inhibition in vivo at 100 mg/kg [1, 5]: 0%
Cc1c(C=O)c2cc(F)ccc2n1CCC(N)=O [Example 4G, β-(2-Methyl-3-formyl-5-fluoro-1-indole)propionamide] |  | 1.1 |  |  | inhibition in vivo at 100 mg/kg [1, 5]: 17%; inhibition in vivo at 100 mg/kg [1, 6]: 36%; pH of the gastric fluid ([1]; s.c., 100 mg./kg.): 1.2; Anti-Ulcer: ratio of number of animals with ulcers to total number of animals in the test group [2]: 5/5
Cc1c(C)n(CC(C)C(N)=O)c2ccccc12 (stereo not drawn) [Example 4H, β-(2,3-Dimethyl-1-indole) -α-methylpropionamide] | 100% | 5.7 |  | 89% | 
Cc1c(C=O)c2ccccc2n1CCCC(N)=O [Example 4J, γ-(2-Methyl-3-formyl-1-indole)butyramide] |  | 1.2 |  | 26% | inhibition in vivo at 100 mg/kg [1, 5]: 17%
Cc1c(C=O)n(CCC(N)=O)c2ccccc12 [Example 4K, β-(2-Formyl-3-methyl-1-indole)propionamide] |  | 1.16 |  |  | inhibition in vivo at 100 mg/kg [1, 7]: 37%; inhibition in vivo at 100 mg/kg [1, 8]: 54%; pH of the gastric fluid ([1]; i.d., 100 mg./kg.): 1.54; pH of the gastric fluid ([1]; i.p., 100 mg./kg.): 2.30; Anti-Ulcer: ratio of number of animals with ulcers to total number of animals in the test group [2]: 3/5
Cc1c(C(=O)C(F)(F)F)c2ccccc2n1CCC(N)=O [Example 4L, β-(2-Methyl-3-trifluoroacetyl-1-indole)propionamide] |  | 1.8 |  |  | inhibition in vivo at 100 mg/kg [1, 5]: 46%; inhibition in vivo at 100 mg/kg [1, 7]: 65%; inhibition in vivo at 100 mg/kg [1, 8]: 78%; pH of the gastric fluid ([1]; i.d., 100 mg./kg.): 2.5; pH of the gastric fluid ([1]; i.p., 100 mg./kg.): 3.8
Cc1c(-c2ccccc2)n(CCC(N)=O)c2ccccc12 [Example 4M, β-(2-Phenyl-3-methyl-1-indole)propionamide] | 20% | 1.1 |  |  | inhibition in vivo at 100 mg/kg [1, 7]: 34%; inhibition in vivo at 100 mg/kg [1, 8]: 43%; pH of the gastric fluid ([1]; i.d., 100 mg./kg.): 1.2; pH of the gastric fluid ([1]; i.p., 100 mg./kg.): 1.7; Anti-Ulcer: ratio of number of animals with ulcers to total number of animals in the test group [2]: 0/5
NC(=O)CCn1c(-c2ccccc2)c(C=O)c2ccccc21 [Example 4N, β-(2-Phenyl-3-formyl-1-indole)propionamide] |  | 1.0 |  |  | inhibition in vivo at 100 mg/kg [1, 5]: 0%; inhibition in vivo at 100 mg/kg [1, 6]: 0%; pH of the gastric fluid ([1]; s.c., 100 mg./kg.): 1.0; Anti-Ulcer: ratio of number of animals with ulcers to total number of animals in the test group [2]: 5/5
